Values joined by “and” are separate entries in the source; they are usually repeats but may differ in a detail not shown here. Identical values can stand only once. Toxic doses and inconclusive results are not listed. The calls were made as follows: active = survival T/C of 150% or more; inactive = T/C below 125% in these data.
System: BDF1 mice, P388 leukemia ip, median survival T/C
Test: NCI In Vivo Anticancer Drug Screen. Data for tumor model P388 Leukemia (intraperitoneal) in B6D2F1 (BDF1) mice
Conditions: endpoint: median survival time, higher = longer survival
How it was run: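 Each value expresses how treatment altered survival: treated-mouse outcome over vehicle-mouse outcome, both groups bearing the transplanted tumour.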

[1] = dose: 50.0 mg/kg/injection, schedule: Q01DX009 (ip), vehicle: saline
[2] = dose: 100.0 mg/kg/injection, schedule: Q01DX009 (ip), vehicle: saline
[3] = dose: 100.0 mg/kg/injection, schedule: Q04DX003 (ip), vehicle: saline
[4] = dose: 400.0 mg/kg/injection, schedule: Q01DX009 (ip), vehicle: saline
[5] = dose: 100.0 mg/kg/injection, schedule: Q01DX009 (ip), vehicle: Klucel (hydroxypropylcellulose) (HPC)
[6] = dose: 100.0 mg/kg/injection, schedule: Q04DX003 (ip), vehicle: Klucel (hydroxypropylcellulose) (HPC)
[7] = dose: 200.0 mg/kg/injection, schedule: Q01DX009 (ip), vehicle: Klucel (hydroxypropylcellulose) (HPC)
[8] = dose: 400.0 mg/kg/injection, schedule: Q01DX009 (ip), vehicle: Klucel (hydroxypropylcellulose) (HPC)
[9] = dose: 50.0 mg/kg/injection, schedule: Q01DX009 (ip), vehicle: Klucel (hydroxypropylcellulose) (HPC)

Measured: T/C

O=C(/C=C/c1ccccc1Cl)NCC(O)CO (centres undefined)
inactive: dose: 50.0 mg/kg/injection, schedule: Q01DX009 (ip), vehicle: saline with Tween-80 100 % of control | dose: 100.0 mg/kg/injection, schedule: Q01DX009 (ip), vehicle: saline with Tween-80 100 % of control | dose: 200.0 mg/kg/injection, schedule: Q01DX009 (ip), vehicle: saline with Tween-80 95 % of control | dose: 400.0 mg/kg/injection, schedule: Q01DX009 (ip), vehicle: other 91 % of control | dose: 400.0 mg/kg/injection, schedule: Q01DX009 (ip), vehicle: saline with Tween-80 90 % of control

CC(C)(N)COS(=O)(=O)O
inactive: [1] 100 % of control | [2] 90 % of control and 100 % of control | [3] 100 % of control | dose: 200.0 mg/kg/injection, schedule: Q01DX009 (ip), vehicle: saline 95 % of control | dose: 200.0 mg/kg/injection, schedule: Q04DX003 (ip), vehicle: saline 100 % of control | [4] 100 % of control | dose: 400.0 mg/kg/injection, schedule: Q04DX003 (ip), vehicle: saline 100 % of control

O=S(=O)(N=C1C(Cl)=C(Cl)C(=NS(=O)(=O)c2ccccc2)C(Cl)=C1Cl)c1ccccc1
inactive: [5] 104 % of control | [6] 100 % of control | [7] 86 % of control | dose: 200.0 mg/kg/injection, schedule: Q04DX003 (ip), vehicle: Klucel (hydroxypropylcellulose) (HPC) 100 % of control | [8] 100 % of control | dose: 400.0 mg/kg/injection, schedule: Q04DX003 (ip), vehicle: Klucel (hydroxypropylcellulose) (HPC) 100 % of control

CC(=O)/C=C\c1ccc(Cl)cc1
inactive: [9] 100 % of control | [5] 111 % of control | [7] 109 % of control | [8] 111 % of control

CC1CN1P(=O)(N1CCCC1)N1CC1C (centres undefined)
inactive: dose: 12.5 mg/kg/injection, schedule: Q04DX003 (ip), vehicle: saline 102 % of control | dose: 25.0 mg/kg/injection, schedule: Q04DX003 (ip), vehicle: saline 105 % of control | dose: 64.0 mg/kg/injection, schedule: Q01DX009 (ip), vehicle: saline 87 % of control
active: dose: 25.0 mg/kg/injection, schedule: Q01DX009 (ip), vehicle: saline 156 % of control | dose: 32.0 mg/kg/injection, schedule: Q01DX009 (ip), vehicle: saline 155 % of control | dose: 37.5 mg/kg/injection, schedule: Q01DX009 (ip), vehicle: saline 173 % of control | dose: 50.0 mg/kg/injection, schedule: Q04DX003 (ip), vehicle: saline 169 % of control | [3] 179 % of control

CCOC(=O)C(=O)NCc1cnccn1
inactive: dose: 100.0 mg/kg/injection, schedule: Q04DX003 (ip), vehicle: water 104 % of control | dose: 200.0 mg/kg/injection, schedule: Q04DX003 (ip), vehicle: water 104 % of control | dose: 400.0 mg/kg/injection, schedule: Q04DX003 (ip), vehicle: water 100 % of control

CCOC(=O)CCC#N
inactive: [1] 100 % of control | [2] 116 % of control | [4] 99 % of control

Nc1cc(N)nc(S(=O)O)n1
inactive: dose: 25.0 mg/kg/injection, schedule: Q01DX009 (ip), vehicle: Klucel (hydroxypropylcellulose) (HPC) 95 % of control and 111 % of control and 120 % of control | dose: 25.0 mg/kg/injection, schedule: Q04DX003 (ip), vehicle: Klucel (hydroxypropylcellulose) (HPC) 104 % of control | [9] 95 % of control | dose: 50.0 mg/kg/injection, schedule: Q04DX003 (ip), vehicle: Klucel (hydroxypropylcellulose) (HPC) 95 % of control | [5] 90 % of control and 110 % of control | [6] 100 % of control

COc1cc2cc(c1Cl)N(C)C(=O)CC(O)C1(C)OC1C(C)C1CC(O)(NC(=O)O1)C(OC)C=C/C=C(\C)C2 (centres undefined)
inactive: dose: 1.8 micrograms/kg/injection, schedule: Q01DX009 (ip), vehicle: saline + alcohol 102 % of control | dose: 3.1 micrograms/kg/injection, schedule: Q01DX009 (ip), vehicle: saline + alcohol 102 % of control and 115 % of control | dose: 6.2 micrograms/kg/injection, schedule: Q01DX009 (ip), vehicle: saline + alcohol 102 % of control and 108 % of control | dose: 12.5 micrograms/kg/injection, schedule: Q01DX009 (ip), vehicle: saline + alcohol 102 % of control and 108 % of control | dose: 25.0 micrograms/kg/injection, schedule: Q01DX009 (ip), vehicle: saline + alcohol 94 % of control and 113 % of control | dose: 50.0 micrograms/kg/injection, schedule: Q01DX009 (ip), vehicle: saline + alcohol 94 % of control and 112 % of control | dose: 100.0 micrograms/kg/injection, schedule: Q01DX009 (ip), vehicle: saline + alcohol 94 % of control and 105 % of control | dose: 200.0 micrograms/kg/injection, schedule: Q01DX009 (ip), vehicle: saline + alcohol 108 % of control and 112 % of control | dose: 400.0 micrograms/kg/injection, schedule: Q01DX009 (ip), vehicle: saline + alcohol 102 % of control

CCCCCCCC(=O)Nc1ccc(C)cc1C
inactive: dose: 100.0 mg/kg/injection, schedule: Q04DX003 (ip), vehicle: other 95 % of control | dose: 200.0 mg/kg/injection, schedule: Q04DX003 (ip), vehicle: other 104 % of control | dose: 400.0 mg/kg/injection, schedule: Q04DX003 (ip), vehicle: other 95 % of control

From PubChem BioAssay AID328 (DTP/NCI, 2004)
